# Results reported in patent US10660939B2, “Therapies for obesity, diabetes and related indications” (Palatin Technologies, Inc., priority 2015, dated 2020).
# How the values were obtained:
# hMC4r [1] = target: T1, hMC4r (Homo sapiens, UniProt P32245); assay: cAMP accumulation functional assay in HEK-293 cells expressing hMC4r; format: cell-based; details: agonist = 70% or greater intrinsic activity
# T1 construct: expressed in transfected cells; host or cells: HEK-293
# Method: Accumulation of intracellular cAMP was examined as a measure of the ability of the MC4r peptides to elicit a functional response in HEK-293 cells that express MC4r. Confluent HEK-293 cells that express recombinant hMC4r were detached from culture plates by incubation in enzyme-free cell dissociation buffer. Dispersed cells were suspended in Earle's Balanced Salt Solution containing 10 mM HEPES (pH 7.5), 1 mM MgCl2, 1 mM glutamine, 0.5% albumin and 0.3 mM 3-isobutyl-1-methyl-xanthine (IBMX), a phosphodiesterase inhibitor. […] Cells were exposed for 15 minutes at 37° C. to peptides of the present invention dissolved in DMSO (final DMSO concentration of 1%) at a concentration range of 0.05-5000 nM in a total assay volume of 200 μL. […] Data analysis was performed by nonlinear regression analysis with Graph-Pad Prism® software. The maximum efficacies of the test peptides of the present invention were compared to that achieved by the reference melanocortin agonist NDP-α-MSH.
# [2] = diet induced obese rats, GLP-1 infusion and Peptide No. 154 twice daily, body weight and feed intake (Example 11); format: in vivo, rat; details: DIO rats
# Method: 11. […] Each treatment group was compared to the vehicle group using t-test, one-way ANOVA or two-way ANOVA followed by Dunnett's multiple comparisons (GraphPad). A p value<0.05 was considered to represent a significant difference.
# Individual body weights were measured on study days 1-9. Percent change in body weight is calculating according to this formula: 100*(value-baseline)/baseline, where value is the weight of the animal on study day in question and baseline is the weight of the same animal on study day −1.
# On days 1-4, feeds were weighed at 0, and 24 hours after lights off. On days 5-9, feeds were weighed at 0, 2, 6 and 24 hours after lights off.
# [3] = diet induced obese Sprague-Dawley rats, GLP-1 infusion and Peptide No. 154 b.i.d., fasted glucose and insulin (Example 9); format: in vivo, rat; details: DIO rats, 1.0 mg/kg Peptide No. 154 b.i.d. alone
# Method: 9. MC4r 154 was evaluated with GLP-1 to determine effect on body weight and feed intake in diet induced obese Sprague-Dawley rats. Rats were acquired at 17 weeks and pre-conditioned for 5 weeks on high fat diet prior to dosing. No sharp increase in weight was noted, likely due to late onset of the high fat diet. At study day −2, baseline GTT and insulin levels were assessed on 16-hour fasted animals. Animals were then permitted a 2-day recovery period, and on study day 0, animals were randomized into treatment groups by body weight and Alzet continuous infusion pumps containing either vehicle or GLP-1 (for dosing at either 10 or 100 μg/kg/day) were implanted. Beginning on study day 1, body weight and feed weights were taken in the mornings. Beginning on study day 4, twice daily (b.i.d.) subcutaneous dosing of saline was initiated for all groups other than the treatment naïve group to acclimate the animals to handling and subcutaneous dosing. […] Animals were fasted for the 16 hours prior to the GTT.
# Data is shown as the percent change from study day −2 baseline test±SEM.
# FIG. 4 compares the fasted insulin levels at study day −2 and study day 12, with insulin measured after 16 hour fast and prior to GTT testing. Data is shown as ng/mL insulin±SEM.
# [4] = diet induced obese mice, Peptide No. 154 with GLP-1, Alzet pumps (Example 8); format: in vivo, mouse; details: DIO mice, continuous infusion of 30 mg/kg/day; lost weight only for the first two days; ±0.34 SEM
# Method: Groups 1, 2 and 4 were provided ad libitum with a 45% high fat rodent diet. Animals in Group 3 were pair-fed to Group 2. The amount of food consumed in Group 2 was the amount of food given to Group 3 in the next 24 hour period. For group 3 (pair-fed group), the pump was implanted 1 day later than other groups to account for pair-feeding. On day −2 and day 6, animals from Groups 1, 2, and 4 were fasted overnight and baseline and terminal glucose tolerance tests (GTT) was conducted. GTT and insulin levels in Group 3 were conducted one day later. Body weight and food intake were measured each day. To conduct the GTT, on study day −2 (−1 for Group 3) (baseline test) and day 6 (7 for Group 3) (termination test), 1 g/kg glucose was orally administered. Glucose levels were taken prior to glucose administration and 15, 30, 60, 90 and 120 minutes post-glucose administration.
# Data is expressed as percent change at the termination test, ±standard deviation (SD) from the baseline test. This was calculated as: (AUCday 7−AUCday −2)[…] In FIG. 1, diet induced obese mice were administered MC4r 154 (30 mg/kg/day) either with or without 0.1 mg/kg/day GLP-1, with one group pair fed to the MC4r 154 group but administered only GLP-1 (“Pair-Fed to MC4r 154+GLP-1”).
# Data is shown as the average of body weight change in grams±standard error of the mean (SEM) from study day 0.
# [5] = DIO mice, single daily subcutaneous bolus dose of Peptide No. 154 (Example 10); format: in vivo, mouse; details: single daily subcutaneous dose of 3 mg/kg, on day 5, ±0.6 SEM
# Method: 10. […] By contrast, animals receiving a single daily subcutaneous dose of 3 mg/kg continuously lost weight over 5 days, and reached a maximum weight loss on day 5 of 4.2 g±0.6 SEM compared to baseline (study day 0).
# hMC4r [6] = target: T1, hMC4r; assay: competitive inhibition binding assay with Eu-NDP-α-MSH (time-resolved fluorometry)
# Method: After incubation for 90 minutes at 37° C., the reaction was stopped by filtration over AcroWell 96-well filter plates (Pall Life Sciences). The filter plates were washed 4 times with 200 μL of ice-cold phosphate-buffered saline. DELFIA Enhancement solution (PerkinElmer Life Sciences) was added to each well. […] Each assay was conducted in duplicate and mean values were utilized. Ki values were determined by curve-fitting with Graph-Pad Prism® software using a one-site fixed-slope competition binding model.
# hMC4r [7] = target: T1, hMC4r; assay: competitive inhibition binding assay with [I125]-NDP-α-MSH, membrane homogenates of HEK-293 cells; details: averaged values, not marked *: [I125]-NDP-α-MSH; read-out: MC4r Ki
# Method: Assays were performed in 96 well GF/B Millipore multiscreen filtration plates (MAFB NOB10) pre-coated with 0.5% bovine serum albumin (Fraction V). […] After incubation for 60 minutes at 37° C., the assay mixture was filtered and the membranes washed three times with ice-cold buffer. Filters were dried and counted in a gamma counter for bound radioactivity. […] Maximal specific binding (100%) was defined as the difference in radioactivity (cpm) bound to cell membranes in the absence and presence of 1 μM NDP-α-MSH. […] Each assay was conducted in triplicate and the actual mean values are described, with results less than 0% reported as 0%. Ki values for test peptides of the present invention were determined using Graph-Pad Prism® curve-fitting software.
# T1 sequence (P32245 whole entry): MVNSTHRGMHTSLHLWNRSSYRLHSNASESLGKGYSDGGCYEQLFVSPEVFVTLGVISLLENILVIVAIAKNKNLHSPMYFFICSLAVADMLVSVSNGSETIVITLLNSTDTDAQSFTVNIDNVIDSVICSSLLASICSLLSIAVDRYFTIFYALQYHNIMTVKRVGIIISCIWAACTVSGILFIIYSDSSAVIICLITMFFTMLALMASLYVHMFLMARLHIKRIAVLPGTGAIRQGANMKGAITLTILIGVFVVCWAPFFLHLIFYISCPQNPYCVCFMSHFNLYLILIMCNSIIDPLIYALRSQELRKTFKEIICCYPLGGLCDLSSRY
compound,measurement,setting,value
"CC(=O)N[C@@H](CCCNC(=N)N)C(=O)N[C@H]1CC(=O)NCCCC[C@@H](C(N)=O)NC(=O)[C@H](Cc2c[nH]c3ccccc23)NC(=O)[C@H](CCCNC(=N)N)NC(=O)[C@@H](Cc2ccccc2)NC(=O)[C@H](Cc2c[nH]cn2)NC1=O [Peptide No. 1, Ac-Arg-cyclo(Asp-His-D-Phe-Arg-Trp-Lys)-NH2]",functional status at MC4r (agonist / partial agonist),hMC4r [1],agonist
"CC(=O)N[C@@H](CCCNC(=N)N)C(=O)N[C@H]1CC(=O)NCCCC[C@@H](C(N)=O)NC(=O)[C@H](Cc2c[nH]c3ccccc23)NC(=O)[C@H](CCCNC(=N)N)NC(=O)[C@@H](Cc2ccccc2)NC(=O)[C@H](C(C)C)NC1=O [Peptide No. 16, Ac-Arg-cyclo(Asp-Val-D-Phe-Arg-Trp-Lys)-NH2]",functional status at MC4r (agonist / partial agonist),hMC4r [1],partial agonist
"CC(=O)N[C@@H](CCCNC(=N)N)C(=O)N[C@H]1CC(=O)NCCCC[C@@H](C(N)=O)NC(=O)[C@H](Cc2c[nH]c3ccccc23)NC(=O)[C@H](CCCNC(=N)N)NC(=O)[C@@H](Cc2ccccc2)NC(=O)[C@H](CCC(N)=O)NC1=O [Peptide No. 32, Ac-Arg-cyclo(Asp-Gln-D-Phe-Arg-Trp-Lys)-NH2]",functional status at MC4r (agonist / partial agonist),hMC4r [1],agonist
"CC(=O)N[C@@H](CCCNC(=N)N)C(=O)N[C@H]1CCCNC(=O)CC[C@@H](C(N)=O)NC(=O)[C@H](Cc2c[nH]c3ccccc23)NC(=O)[C@H](CCCNC(=N)N)NC(=O)[C@@H](Cc2ccccc2)NC(=O)[C@H](CC(N)=O)NC1=O [Peptide No. 154, Ac-Arg-cyclo(Orn-Asn-D-Phe-Arg-Trp-Glu)-NH2]",appetite on day 9,[2],recovered on day 9
same,food intake after start of Peptide No. 154 dosing,[2]; Peptide No. 154 s.c. from day 5,decreased starting on day 5
same,feed intake at 2 and 6 hours post lights off compared with vehicle,[2]; days 5-9,significant decreased feed intakes
same,body weight compared with vehicle,"[2]; subcutaneous dosing twice daily, days 5-10",decreased animal's body weight significantly
same,"decrease in fasted plasma glucose, day -2 to day 12",[3],most pronounced decrease
same,maximum weight loss compared to baseline (study day 0),[4],1.76 g
same,maximum weight loss compared to baseline (study day 0),[5],4.2 g
"CC(=O)NCC[C@@H]1NC(=O)[C@@H](NC(=O)[C@H](CCCNC(=N)N)NC(C)=O)CC(=O)NCCCC[C@@H](C(N)=O)NC(=O)[C@H](Cc2c[nH]c3ccccc23)NC(=O)[C@H](CCCNC(=N)N)NC(=O)[C@@H](Cc2ccccc2)NC1=O [compound 114, Ac-Arg-cyclo(Asp-Dab(Acetyl)-D-Phe-Arg-Trp-Lys)-NH2]",Ki,hMC4r [6],88 nM
"CC(=O)N[C@@H](CCCNC(=N)N)C(=O)N[C@H]1CCCC(=O)NCC[C@@H](C(N)=O)NC(=O)[C@H](Cc2c[nH]c3ccccc23)NC(=O)[C@H](CCCNC(=N)N)NC(=O)[C@@H](Cc2ccccc2)NC(=O)[C@H](Cc2c[nH]cn2)NC1=O [compound 126, Ac-Arg-cyclo(hGlu-His-D-Phe-Arg-Trp-Dab)-NH2]",functional status at MC4r (agonist / partial agonist),hMC4r [1],agonist
"CC(=O)N[C@@H](CCCNC(=N)N)C(=O)N[C@H]1CCCC(=O)NCC[C@@H](C(N)=O)NC(=O)[C@H](Cc2c[nH]c3ccccc23)NC(=O)[C@H](CCCNC(=N)N)NC(=O)[C@@H](Cc2ccccc2)NC(=O)[C@H](CCN)NC1=O [compound 127, Ac-Arg-cyclo(hGlu-Dab-D-Phe-Arg-Trp-Dab)-NH2]",functional status at MC4r (agonist / partial agonist),hMC4r [1],agonist
"CC(=O)N[C@@H](CCCNC(=N)N)C(=O)N[C@H]1CCNC(=O)CCC[C@@H](C(N)=O)NC(=O)[C@H](Cc2c[nH]c3ccccc23)NC(=O)[C@H](CCCNC(=N)N)NC(=O)[C@@H](Cc2ccccc2)NC(=O)[C@H](Cc2c[nH]cn2)NC1=O [compound 128, Ac-Arg-cyclo(Dab-His-D-Phe-Arg-Trp-hGlu)-NH2]",functional status at MC4r (agonist / partial agonist),hMC4r [1],agonist
"CC(=O)N[C@@H](CCCNC(=N)N)C(=O)N[C@H]1CCNC(=O)CCC[C@@H](C(N)=O)NC(=O)[C@H](Cc2c[nH]c3ccccc23)NC(=O)[C@H](CCCNC(=N)N)NC(=O)[C@@H](Cc2ccccc2)NC(=O)[C@H](CCN)NC1=O [compound 129, Ac-Arg-cyclo(Dab-Dab-D-Phe-Arg-Trp-hGlu)-NH2]",functional status at MC4r (agonist / partial agonist),hMC4r [1],agonist
"CC(=O)N[C@@H](CCCNC(=N)N)C(=O)N[C@H]1CC(=O)NCCCC[C@@H](C(N)=O)NC(=O)[C@H](Cc2c[nH]c3ccccc23)NC(=O)[C@H](CCCNC(=N)N)NC(=O)[C@@H](Cc2ccccc2)NC(=O)[C@H](CCN)NC1=O [compound 163, Ac-Arg-cyclo(Asp-Dab-D-Phe-Arg-Trp-Lys)-NH2]",Ki,hMC4r [7],4 nM
"CC(=O)N[C@@H](CCCNC(=N)N)C(=O)N[C@H]1CC(=O)NCCCC[C@@H](C(=O)O)NC(=O)[C@H](Cc2c[nH]c3ccccc23)NC(=O)[C@H](CCCNC(=N)N)NC(=O)[C@@H](Cc2ccccc2)NC(=O)[C@H](CCN)NC1=O [compound 164, Ac-Arg-cyclo(Asp-Dab-D-Phe-Arg-Trp-Lys)-OH]",Ki,hMC4r [7],57 nM
